# Data taken from patent US20250230193A1, “CYCLIC COMPOUND HAVING SELECTIVE KRAS INHIBITORY EFFECT ON HRAS AND NRAS” (CHUGAI SEIYAKU KABUSHIKI KAISHA, priority 2022, published 2025).
# *1 amine or outer side, *2 acyl side, *3 side chain or, on linkers, in order; H or OH if unused. Where a SMILES comes first, the peptide text is derived from it. Bridges are numbered along the chain shown (N, C = ends). [ ]: non-standard residue; d: D form. The star is where a group is joined. hPhe(3-Cl-4-CF3) = N[C@@H](CCc1ccc(C(F)(F)F)c(Cl)c1)C(=O)O; X41 = Cc1ccc(C[C@@H](C(=O)[*:2])N(CCC(F)(F)F)[*:1])cc1; NPrPhe(4-CF3) = CCCN[C@@H](Cc1ccc(C(F)(F)F)cc1)C(=O)O; X50 = C=CCN([C@@H](Cc1ccc(C)cc1)C(=O)[*:2])[*:1]; NMeGly(cPent) = CN[C@H](C(=O)O)C1CCCC1; NMeD = CN[C@@H](CC(=O)O)C(=O)O; NMeL = CN[C@@H](CC(C)C)C(=O)O; NMeAbu = CC[C@H](NC)C(=O)O; Morpholide = C1CN(*)CCO1; NMeA = CN[C@@H](C)C(=O)O; Ac5c = NC1(C(=O)O)CCCC1; Aze = O=C(O)[C@@H]1CCN1; NPrGly = CCCNCC(=O)O; Sar = CNCC(=O)O
# Experiments:
# [1] = target: GDP-bound NRAS wild-type protein (Homo sapiens, UniProt P01111); assay: Binding to NRAS by surface plasmon resonance (SPR), Single Cycle Kinetics; conditions: SPR
# Chain of GDP-bound NRAS wild-type protein (P01111 whole entry): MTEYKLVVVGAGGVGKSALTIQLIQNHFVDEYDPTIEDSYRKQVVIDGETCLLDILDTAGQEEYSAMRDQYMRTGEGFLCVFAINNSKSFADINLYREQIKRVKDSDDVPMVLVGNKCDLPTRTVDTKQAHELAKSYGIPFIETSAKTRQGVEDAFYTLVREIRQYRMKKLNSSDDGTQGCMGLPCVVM
# [2] = target: GDP-bound HRAS wild-type protein (Homo sapiens, UniProt P01112); assay: Binding to HRAS by surface plasmon resonance (SPR), Single Cycle Kinetics; conditions: SPR
# Chain of GDP-bound HRAS wild-type protein (P01112 whole entry): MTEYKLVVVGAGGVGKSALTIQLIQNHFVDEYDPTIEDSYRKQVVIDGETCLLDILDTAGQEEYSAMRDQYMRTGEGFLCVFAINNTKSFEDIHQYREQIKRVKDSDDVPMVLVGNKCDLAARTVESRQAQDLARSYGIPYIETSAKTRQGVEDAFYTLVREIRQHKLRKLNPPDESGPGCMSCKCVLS
# [3] = KD ratio, GDP-bound NRAS wild-type vs GDP-bound KRAS wild-type
# [4] = KD ratio, GDP-bound HRAS wild-type vs GDP-bound KRAS wild-type
SMILES,NRAS/KRAS (ratio of KD for GDP-bound NRAS wild-type to KD for KRAS) ([1]; KD ratio NRAS/KRAS),HRAS/KRAS (ratio of KD for GDP-bound HRAS wild-type to KD for KRAS) ([2]; KD ratio HRAS/KRAS),further results
CC[C@H](C)[C@@H]1NC(=O)[C@H](C)N(C)C(=O)C[C@@H](C(=O)N2CCOCC2)N(C)C(=O)[C@H](C2CCCC2)N(C)C(=O)C2(CCCC2)NC(=O)[C@@H]2CCCN2C(=O)[C@H](CCc2cc(F)c(C(F)(F)F)c(F)c2)NC(=O)CN(C)C(=O)[C@H](Cc2ccc(C(F)(F)F)cc2)N2CCCCC[C@@H](C2=O)N(C)C(=O)CN(C)C1=O [PP0487],–,–,NRAS/KRAS (ratio of KD value with respect to GDP-bound NRAS wild-type protein to KD value with respect to KRAS) ([1]; KD ratio NRAS/KRAS): B (a compound having 3 or more and less than 10 is denoted as B); HRAS/KRAS (ratio of KD value with respect to GDP-bound HRAS wild-type protein to KD value with respect to KRAS) ([2]; KD ratio HRAS/KRAS): B (a compound having 3 or more and less than 10 is denoted as B)
C=CCN1C(=O)CN(C)C(=O)CN(C)C(=O)[C@H]([C@@H](C)CC)NC(=O)[C@H](CC(C)C)N(C)C(=O)C[C@@H](C(=O)N2CCOCC2)N(C)C(=O)[C@H](C2CCCC2)N(C)C(=O)C2(CCCC2)NC(=O)[C@@H]2CCCN2C(=O)[C@H](CCc2ccc(C(F)(F)F)c(Cl)c2)NC(=O)CN(C)C(=O)[C@@H]1Cc1ccc(C)cc1 [PP0100] ([NMeL]I[Sar][Sar][X50][Sar][hPhe(3-Cl-4-CF3)]P[Ac5c][NMeGly(cPent)][NMeD]-Morpholide; lactam N-11),B (a compound having 3 or more and less than 10 is denoted as B),C (A compound having a KD ratio of 0.1 or more and less than 3 is denoted as C),–
CCCN1CC(=O)NC2(CCCC2)C(=O)N(C)[C@@H](C2CCCC2)C(=O)N(C)[C@H](C(=O)N2CCOCC2)CC(=O)N(C)[C@@H](CC(C)C)C(=O)N[C@@H]([C@@H](C)CC)C(=O)N2CC[C@H]2C(=O)N(C)CC(=O)N(CCC)[C@@H](Cc2ccc(C(F)(F)F)cc2)C(=O)N(C)CC(=O)N[C@@H](CCc2ccc(C(F)(F)F)c(Cl)c2)C1=O [PP0315] ([NMeL]I[Aze][Sar][NPrPhe(4-CF3)][Sar][hPhe(3-Cl-4-CF3)][NPrGly][Ac5c][NMeGly(cPent)][NMeD]-Morpholide; lactam N-11),B (a compound having 3 or more and less than 10 is denoted as B),B (a compound having 3 or more and less than 10 is denoted as B),–
CCO[C@@H]1C[C@H]2C(=O)NC3(CC(C)(C)C3)C(=O)N(C)[C@@H](C3CCCC3)C(=O)N(C)[C@H](C3CCC3)CC(=O)N(C)[C@@H](CC3CC3)C(=O)N[C@@H]([C@@H](C)CC)C(=O)N(C)CC(=O)N(C)[C@H]3C/C=C\CCN(C3=O)[C@@H](Cc3ccc(C(F)(F)F)cc3)C(=O)N(C)CC(=O)N[C@@H](CCc3cc(F)c(C(F)(F)F)c(F)c3)C(=O)N2C1 [PP1635],–,–,"NRAS/KRAS (ratio of KD value for NRAS to KD value for KRAS) [1, 3]: B (a compound having 3 or more and less than 10 is denoted as B); HRAS/KRAS (ratio of KD value for HRAS to KD value for KRAS) [2, 4]: A (a compound having 10 or more and less than 20 is denoted as A)"
CC[C@H](C)[C@@H]1NC(=O)[C@H](CC)N(C)C(=O)C[C@@H](C(=O)N(C)C)N(C)C(=O)[C@H](C2CCCC2)N(C)C(=O)C2(CCCC2)N(C)C(=O)[C@@H]2CCCN2C(=O)[C@H](CCc2cc(F)c(C(F)(F)F)c(F)c2)NC(=O)CN(C)C(=O)[C@H](Cc2ccc(C)cc2)N2CC/C=C\C[C@@H](C2=O)N(C)C(=O)[C@@H]2CCCN2C1=O [PP1811],–,–,"NRAS/KRAS (ratio of KD value for NRAS to KD value for KRAS) [1, 3]: A (a compound having 10 or more and less than 20 is denoted as A); HRAS/KRAS (ratio of KD value for HRAS to KD value for KRAS) [2, 4]: B (a compound having 3 or more and less than 10 is denoted as B)"
CC[C@H](C)[C@@H]1NC(=O)[C@H](CC(C)C)N(C)C(=O)C[C@@H](C(=O)N2CCOCC2)N(C)C(=O)[C@H](C2CCCC2)N(C)C(=O)C2(CCCC2)NC(=O)[C@@H]2CCCN2C(=O)[C@H](CCc2ccc(C(F)(F)F)c(Cl)c2)NC(=O)CN(C)C(=O)[C@H](Cc2ccc(C)cc2)N(CCC(F)(F)F)C(=O)[C@@H]2CCN2C(=O)[C@H](C)N(C)C1=O [PP0091] ([NMeL]I[NMeA][Aze][X41][Sar][hPhe(3-Cl-4-CF3)]P[Ac5c][NMeGly(cPent)][NMeD]-Morpholide; lactam N-11),C (A compound having a KD ratio of 0.1 or more and less than 3 is denoted as C),B (a compound having 3 or more and less than 10 is denoted as B),–
CCO[C@@H]1C[C@H]2C(=O)NC3(CCC3)C(=O)N(C)[C@@H](C3CCCC3)C(=O)N(C)[C@H](C(=O)N(C)C)CC(=O)N(C)[C@@H](CC)C(=O)N[C@@H]([C@@H](C)CC)C(=O)N(C)CC(=O)N(C)[C@H]3CCCCN(C3=O)[C@@H](Cc3ccc(C(F)(F)F)cc3)C(=O)N(C)CC(=O)N[C@@H](CCc3cc(Cl)c(C(F)(F)F)c(Cl)c3)C(=O)N2C1 [PP0985],–,–,"NRAS/KRAS (ratio of KD value with respect to NRAS to KD value with respect to KRAS) [1, 3]: C (A compound having a KD ratio of 0.1 or more and less than 3 is denoted as C); HRAS/KRAS (ratio of KD value with respect to HRAS to KD value with respect to KRAS) [2, 4]: C (A compound having a KD ratio of 0.1 or more and less than 3 is denoted as C)"
CCCN1C(=O)CN(C)C(=O)CN(C)C(=O)[C@H]([C@@H](C)CC)NC(=O)[C@H](CC)N(C)C(=O)C[C@@H](C(=O)N2CCOCC2)N(C)C(=O)[C@H](C2CCCC2)N(C)C(=O)C2(CCCC2)NC(=O)[C@@H]2CCCN2C(=O)[C@H](CCc2ccc(C(F)(F)F)c(Cl)c2)NC(=O)CN(C)C(=O)[C@@H]1Cc1ccc(C(F)(F)F)cc1 [PP0190] ([NMeAbu]I[Sar][Sar][NPrPhe(4-CF3)][Sar][hPhe(3-Cl-4-CF3)]P[Ac5c][NMeGly(cPent)][NMeD]-Morpholide; lactam N-11),B (a compound having 3 or more and less than 10 is denoted as B),B (a compound having 3 or more and less than 10 is denoted as B),–
